Assay results: PMC7000521, “Hazard Characterization of Synthetic Cathinones Using Viability, Monoamine Reuptake, and Neuronal Activity Assays” (Frontiers in Neuroscience, 2020)
Read-outs that look alike come from different tables or passages of the source. Marks after values point to notes of the source that are not given here.

Experiments:
[1] = tested on: rat primary cortical cultures; test: MEA recordings of spontaneous neuronal network activity; assay type: cell-based; conditions: for IC50: value [CI]
Experimental: Rat pups born of timed-pregnant Wistar rats (Envigo, Horst, Netherlands) were sacrificed on postnatal day 0–1 to prepare cortical cultures grown on MEA plates as described previously ([Zwartsen et al., 2018], [2019]). Briefly, a 50 μL drop of cell suspension was added to each well (1 × 10^5 cells/well) of a 48-well MEA plate (Axion BioSystems Inc., Atlanta, GA, United States, M768-GL1-30Pt200) coated with 0.1% polyethyleneimine (PEI). After 2 h, 450 μL dissection medium was added to each well. The day after the isolation (day in vitro 1; DIV1), 450 μL/well dissection medium was replaced with 450 μL/well glutamate medium. At DIV4, 450 μL/well glutamate medium was replaced with 450 μL/well FBS medium (for medium supplements see [Zwartsen et al., 2018], [2019]). Cultures were kept in FBS medium at 37°C, 5% CO2/95% air atmosphere until use at DIV9-10.
Microelectrode array recordings were performed as described in [Zwartsen et al. (2019)]. In short, neuronal activity was measured using a Maestro 768-channel amplifier (Axion BioSystems Inc., Atlanta, GA, United States). Baseline spontaneous neuronal activity was recorded for 30 min at 37°C, after which wells were exposed to selected synthetic cathinones under sterile conditions. Next, neuronal activity was determined during a 30 min “acute exposure” recording. […] Next, exposure medium was replaced with fresh FBS medium and the plate was incubated for 19 h at 37°C, until the 30 min “washout” recording, i.e., 24 h after the start of the exposure.
Effects of 3-MMC, 4-MMC, 4-MEC, pentedrone, 3-MMCinternet, and 4-MECinternet were tested at 1–1000 μM (final concentration). At the day of exposure, stocks and dilutions were freshly made in NB-A FBS medium (for medium supplements see [Zwartsen et al., 2019]). Data on methylone, α-PVP, and MDPV exposure have been published previously in [Zwartsen et al. (2019)]. For each experimental condition, primary cultures from two to three different isolations were used and tested in four to five plates (Nplates). The number of wells (nwells) represents the number of replicates per condition.
Microelectrode array data were analyzed as described in [Zwartsen et al. (2019)]. In short, parameters of interest after acute exposure were expressed as a percentage of the parameters prior to exposure to obtain a treatment ratio for each well (paired comparison; parameterexposure/parameterbaseline as % of control wells). The parameters after prolonged exposure and washout were also expressed as a percentage of the baseline parameters. Next, treatment ratios were grouped per parameter, condition, drug [e.g., mean spike rate (MSR) 10 μM 3-MMC] and exposure scenario (acute, prolonged, or washout).
Outliers (>mean ± 2×SD) for MSR (5.0%) were used to exclude wells on all parameters. Outliers for mean burst rate (MBR; 2.6%) and mean network burst rate (MNBR; 1.4%) were used to exclude wells on specific parameters (burst, network burst, and synchronicity parameters, or network burst and synchronicity parameters, respectively). Finally, the acute, prolonged, and washout control treatment ratios were set to 100% and treatment ratios of exposed wells were normalized to the average treatment ratio of medium control wells of the corresponding parameter and exposure scenario. Treatment ratios of exposed wells were averaged per parameter (e.g., MSR), condition (e.g., 100 μM), drug (e.g., methylone), and exposure scenario (e.g., acute exposure) and used for further statistical analyses [see [Zwartsen et al. (2019)] for more details on criteria, parameters, and exposure scenarios]. Neuronal activity (as % of control) is expressed as mean ± SEM of nwells from Nplates. As the spike, burst, and network burst rates were among the most sensitive parameters, these parameters are presented in the manuscript. Additional parameters are presented in Supplementary Figure 2.
Concentration–response curves were made for transporter, MEA, and cell viability assays. […]

hDAT [2] = biological target: T1, hDAT (Homo sapiens, UniProt Q01959); test: Monoamine uptake assay (fluorescent substrate), hDAT; assay type: cell-based
T1 construct: expressed in transfected cells
T1 sequence (Q01959 whole entry): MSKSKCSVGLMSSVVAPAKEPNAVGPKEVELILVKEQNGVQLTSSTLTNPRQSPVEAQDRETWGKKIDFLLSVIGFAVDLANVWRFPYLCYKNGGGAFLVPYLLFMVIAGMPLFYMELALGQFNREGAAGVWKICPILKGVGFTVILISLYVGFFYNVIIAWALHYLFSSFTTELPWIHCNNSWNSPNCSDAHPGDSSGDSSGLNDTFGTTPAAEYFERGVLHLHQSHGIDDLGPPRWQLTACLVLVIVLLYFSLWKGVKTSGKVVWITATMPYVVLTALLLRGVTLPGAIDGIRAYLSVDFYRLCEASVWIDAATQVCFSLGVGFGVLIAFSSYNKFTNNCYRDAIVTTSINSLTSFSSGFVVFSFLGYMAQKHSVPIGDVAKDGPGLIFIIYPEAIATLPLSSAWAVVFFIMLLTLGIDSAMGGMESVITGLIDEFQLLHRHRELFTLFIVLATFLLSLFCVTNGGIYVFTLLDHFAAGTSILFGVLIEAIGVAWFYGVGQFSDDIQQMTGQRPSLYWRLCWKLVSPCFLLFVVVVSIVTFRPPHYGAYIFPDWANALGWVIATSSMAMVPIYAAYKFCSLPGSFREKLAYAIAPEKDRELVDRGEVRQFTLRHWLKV
Experimental: (§1) Human embryonic kidney (HEK) 293 cells stably expressing human DAT, NET, or SERT (kindly provided by Dr. Hoener from F. Hoffmann-La Roche Ltd., Basel, Switzerland) were cultured as described in [Zwartsen et al. (2017)].
(§2) Uptake activity of hNET, hDAT, and hSERT was measured using the Neurotransmitter Transporter Uptake Assay Kit from MDS Analytical Technologies (Sunnyvale, CA, United States) as described in detail previously ([Zwartsen et al., 2017]). The kit contained a mixture consisting of a fluorescent substrate, which resembles the biogenic amine neurotransmitters, and a masking dye that extinguishes extracellular fluorescence. Uptake of the fluorescent substrate, a measure of neurotransmitter transporter function, increases intracellular fluorescence, while extracellular fluorescence is blocked by the masking dye ([Jorgensen et al., 2008]). The mixture was dissolved in Hank’s Balanced Salt Solution (1×) (HBSS) with 20 mM HEPES, and kept up to 1 week at −20°C.
On day 0, HEK 293 cells were seeded (60,000 cells/well) in clear-bottom black-walled 96-well plates coated with poly-L-lysine (PLL, 50 mg/L). On day 1, cells were pre-incubated with the fluorescent substrate mixture (95 μL/well, comprising of the fluorescent substrate and the extracellular masking dye, dissolved in HBSS) for 12 min (t = −12 to t = 0). During incubation, intracellular fluorescence was measured every 3 min. […] Stock solutions and dilutions were freshly prepared in HBSS (1×) at the day of usage. Effects of 3-MMC, 4-MMC, 4-MEC, methylone, pentedrone, MDPV, 3-MMCinternet, and 4-MECinternet were measured at final concentrations of 0.03–300/1000 μM. Fluorescence was measured with a microplate reader (Tecan Infinite M200 microplate; Tecan Trading Männedorf, Switzerland) at 37°C at 430/515 nm excitation/emission wavelength. For more experimental detail see [Zwartsen et al. (2017)].
Data from the monoamine uptake assay were analyzed as described by [Zwartsen et al. (2017)], with minor modifications. Data for α-PVP were reanalyzed from [Zwartsen et al. (2017)]. In short, the fluorescence of each well was background corrected and uptake was determined per well by calculating the change in fluorescence (ΔFU) at 12 min after drug exposure (t = 12) compared to the fluorescence at the start of exposure (t = 0), as a percentage of the fluorescence at the start of exposure (%ΔFU = ((FUt = 12−FUt = 0)/FUt = 0)∗100%; see [Zwartsen et al., 2017]). Plate-matched control values for each compound (e.g., methylone) above or below two times the standard deviation of the average normalized control value were considered outliers and were removed from analysis (4.8%). Thereafter, uptake in drug-exposed wells was expressed as a percentage of control wells on the same plate and all uptake values were scaled between 0 and 100%. Outliers (>mean ± 2×SD) in exposed groups were removed (2.7%) and uptake (% compared to control) was expressed as mean ± SEM of nwells from Nplates.
Concentration–response curves were made for transporter, MEA, and cell viability assays. To calculate IC50 values, a four-parameter logistic curve with a variable slope was used (Y = Bottom + (Top−Bottom)/(1 + 10∧((LogIC50 − X) ^∗ HillSlo pe))) (GraphPad Prism, version 7.04). When applicable, significance between concentrations and controls (for MEA) and different IC50 values [between different transporters (DAT/NET/SERT), MEA parameters (MSR/MBR/MNBR), exposure settings (acute/prolonged/recovery), and drug grade (pharmaceutical/internet)] were determined using unpaired t-tests (two values) or one-way ANOVA’s followed by a post hoc Dunnet’s test (>2 values). All statistical tests were performed using GraphPad Prism. For recovery of neuronal activity, IC50 values and 95% confidence intervals could not always be determined and are reported as higher than the highest concentration tested (e.g., >1000 μM). […]

hSERT = biological target: T2, hSERT (Homo sapiens, UniProt P31645); conditions: cited from earlier work
T2 construct: expressed in transfected cells
T2 sequence (P31645 whole entry): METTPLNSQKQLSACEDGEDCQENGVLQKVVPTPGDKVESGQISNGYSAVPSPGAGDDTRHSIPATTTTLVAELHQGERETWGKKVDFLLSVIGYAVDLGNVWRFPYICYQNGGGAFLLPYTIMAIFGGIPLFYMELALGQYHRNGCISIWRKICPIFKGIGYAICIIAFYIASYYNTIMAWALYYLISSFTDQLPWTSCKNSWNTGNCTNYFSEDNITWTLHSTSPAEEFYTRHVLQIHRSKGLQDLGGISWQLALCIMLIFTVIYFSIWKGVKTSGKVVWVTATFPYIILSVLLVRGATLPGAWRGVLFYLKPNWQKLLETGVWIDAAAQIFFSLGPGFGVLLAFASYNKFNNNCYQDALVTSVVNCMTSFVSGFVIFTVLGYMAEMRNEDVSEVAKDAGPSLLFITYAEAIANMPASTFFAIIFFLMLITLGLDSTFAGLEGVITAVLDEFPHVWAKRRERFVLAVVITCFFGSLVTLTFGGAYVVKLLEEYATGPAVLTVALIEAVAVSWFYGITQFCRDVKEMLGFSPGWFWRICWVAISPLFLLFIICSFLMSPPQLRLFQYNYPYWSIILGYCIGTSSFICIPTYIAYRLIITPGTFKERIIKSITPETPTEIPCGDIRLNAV

[3] = tested on: rat primary cortical cultures; set-up: method as in Zwartsen et al., 2019; conditions: 2019, cited from earlier work; for IC50: value [CI], published previously ref Zwartsen et al.
hNET = biological target: T3, hNET (Homo sapiens, UniProt P23975); test: Monoamine uptake assay (fluorescent substrate), hNET; assay type: cell-based
T3 construct: expressed in transfected cells
T3 sequence (P23975 whole entry): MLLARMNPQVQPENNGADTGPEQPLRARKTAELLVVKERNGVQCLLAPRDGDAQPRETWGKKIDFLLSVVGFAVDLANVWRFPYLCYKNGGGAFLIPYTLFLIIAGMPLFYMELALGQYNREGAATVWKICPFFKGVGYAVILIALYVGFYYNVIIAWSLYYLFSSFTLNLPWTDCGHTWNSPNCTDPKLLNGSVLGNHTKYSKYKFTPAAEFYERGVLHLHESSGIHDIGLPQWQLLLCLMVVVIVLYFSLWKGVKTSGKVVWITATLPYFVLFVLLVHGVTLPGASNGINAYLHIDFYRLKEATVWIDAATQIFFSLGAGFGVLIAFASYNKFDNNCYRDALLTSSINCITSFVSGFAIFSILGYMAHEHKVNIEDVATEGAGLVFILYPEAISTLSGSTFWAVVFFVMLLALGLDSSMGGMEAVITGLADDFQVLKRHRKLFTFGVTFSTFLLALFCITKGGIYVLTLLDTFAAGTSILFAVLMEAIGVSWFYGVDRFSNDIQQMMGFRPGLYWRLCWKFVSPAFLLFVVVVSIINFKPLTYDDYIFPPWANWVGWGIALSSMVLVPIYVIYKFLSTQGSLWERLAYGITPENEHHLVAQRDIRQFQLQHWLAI
Experimental: as §1
as §2, with “The mixture was dissolved in Hank’s Balanced Salt Solution (1×) (HBSS) with 20 mM HEPES, and kept up to 1 week at −20°C.” left out
On day 0, HEK 293 cells were seeded (60,000 cells/well) in clear-bottom black-walled 96-well plates coated with poly-L-lysine (PLL, 50 mg/L). […] During incubation, intracellular fluorescence was measured every 3 min. […] Effects of 3-MMC, 4-MMC, 4-MEC, methylone, pentedrone, MDPV, 3-MMCinternet, and 4-MECinternet were measured at final concentrations of 0.03–300/1000 μM. Fluorescence was measured with a microplate reader (Tecan Infinite M200 microplate; Tecan Trading Männedorf, Switzerland) at 37°C at 430/515 nm excitation/emission wavelength. […]

[4] = recreational use (driving under the influence or accidental non-fatal intoxications); ref literature; cited from earlier work
[5] = Estimated human brain concentrations and comparison with IC50 values; conditions: recreational human blood/serum/plasma concentration multiplied with BPF
Source text: (§3) To correlate reported effect concentrations to expected concentrations in the human brain during recreational use a brain partitioning factor (BPF; […]) was applied, as actual human brain concentrations following recreational drug use are unknown. Expected concentrations in the human brain were estimated by multiplying recreational human blood/serum/plasma concentrations with the BPF. Human recreational blood, serum, or plasma levels were obtained from literature (driving under the influence or accidental non-fatal intoxications). The BPF was determined for each drug by dividing the brain concentration by the blood/serum/plasma concentration found in human post mortem reports, or animal studies (rat/mice) when human data were insufficient.
To identify the relevance of effects and potentially harmful drugs, effect concentrations (IC50 values) were related to the estimated human brain concentration during recreational use [(brain), Table 2]. By comparing these concentrations, the most relevant neurotoxic mechanisms of cathinones can be identified. […] Only 4-MEC and MDPV inhibited neuronal activity during acute exposure at concentrations within (MDPV) or close to (4-MEC) the estimated brain concentration.

[6] = Brain partitioning factor (BPF); conditions: brain concentration divided by blood/serum/plasma concentration from human post mortem reports or animal studies (rat/mice)
Source text: as §3

hDAT [7] = biological target: T1, hDAT; set-up: method as in Zwartsen et al., 2017; conditions: read-out: Transporter inhibition IC50, hDAT; HEK 293 cells; value [CI]; reanalyzed from previously published data ref Zwartsen et al., 2017; cited from earlier work
[8] = 19 h washout, 24 h after start of exposure, read-out: Neuronal activity IC50, mean burst rate (MBR), recovery
[9] = 19 h washout, 24 h after start of exposure, read-out: Neuronal activity IC50, mean network burst rate (MNBR), recovery
[10] = acute exposure 30 min, read-out: Neuronal activity IC50, mean network burst rate (MNBR), acute
[11] = acute exposure 30 min, read-out: Neuronal activity IC50, mean burst rate (MBR), acute
[12] = acute exposure 30 min, read-out: Neuronal activity IC50, mean spike rate (MSR), acute
[13] = washout, 24 h after start of exposure, read-out: Neuronal activity IC50, mean burst rate (MBR), recovery
[14] = washout, 24 h after start of exposure, read-out: Neuronal activity IC50, mean network burst rate (MNBR), recovery
[15] = washout, 24 h after start of exposure, read-out: Neuronal activity IC50, mean spike rate (MSR), recovery

Structure (SMILES)	IC50 [1, 8] [µM]	IC50 [1, 9] [µM]	IC50 [1, 10] [µM]	IC50 [3, 11] [µM]	IC50 [3, 10] [µM]	IC50 [3, 12] [µM]	IC50 [3, 13] [µM]	IC50 [3, 14] [µM]	IC50 [3, 15] [µM]	Human (serum/blood/plasma) concentration [4]	Estimated human (brain) concentration [5] [µM]	Brain partitioning factor (BPF) [6]	also measured
CNC(C)C(=O)c1cccc(C)c1 (stereo not drawn) [3-MMCinternet]	> 1000	> 1000	57	–	–	–	–	–	–	–	–	–	–
CCNC(C)C(=O)c1ccc(C)cc1 (stereo not drawn) [4-MECinternet]	> 1000	> 1000	79	–	–	–	–	–	–	–	–	–	IC50 (hDAT [2]; HEK 293 cells, 37°C, uptake at 12 min after drug exposure, value [CI], read-out: Transporter inhibition IC50, hDAT): 1.7 µM; IC50 [1, 11]: 79 µM; IC50 [1, 12]: 70 µM
CNC(C)Cc1ccc2c(c1)OCO2 (stereo not drawn) [MDMA, 3,4-methylenedioxymethamphetamine]	–	–	–	–	–	–	–	–	–	–	–	–	Increase in potency to inhibit hSERT (hSERT): threefold
CNC(C)C(=O)c1ccc2c(c1)OCO2 (stereo not drawn) [Methylone, 1-(1,3-benzodioxol-5-yl)-2-(methylamino)propan-1-one]	–	–	–	266	323	244	> 1000	> 1000	> 1000	0.01–18^a,d,g,h μM	0.01 to 81	1.4–4.5^5,^–6,^7	IC50 (hDAT [2]): 2 µM; Reduction of potency to inhibit neuronal activity compared to MDMA ([3]; methylone versus MDMA, ref Zwartsen et al.): threefold; IC50 ([3]; prolonged exposure 4.5 h, read-out: Neuronal activity IC50, mean burst rate (MBR), prolonged): 322 µM; IC50 ([3]; prolonged exposure 4.5 h, read-out: Neuronal activity IC50, mean network burst rate (MNBR), prolonged): 362 µM; IC50 ([3]; prolonged exposure 4.5 h, read-out: Neuronal activity IC50, mean spike rate (MSR), prolonged): 283 µM; IC50 (hNET): 1.7 µM
CCCC(C(=O)c1ccccc1)N1CCCC1 (stereo not drawn) [α-PVP, α-pyrrolidinovalerophenone]	–	–	–	33	33	26	> 300	> 300	> 300	0.01–2.8^b,j,K μM	0.001 to 5.0	0.1–1.8^4,8,9,10	IC50 (hDAT [7]): 0.2 µM; Increased potency to inhibit neuronal activity (MSR, MBR, and MNBR) compared to cathinones lacking the lengthened alkyl chain ([1]; acute and prolonged exposure): two to fourfold
